Assay results: paper PMC8291583, “Design, synthesis, and evaluation of 3,7-substituted coumarin derivatives as multifunctional Alzheimer’s disease agents” (Journal of Enzyme Inhibition and Medicinal Chemistry, 2021)
Read-outs that look alike come from different tables or passages of the source.

Columns and labels:
[1] = target: T1, BuChE from equine serum (Equus caballus, UniProt P81908); test: biochemical
T1 construct: 12 U/ml BuChE from equine serum; from tissue; host or cells: equine serum
Protocol: Cholinesterase activity is determined using a modified colorimetric method first described by Ellman[40]. […] The stock was then further diluted by factors of ten to produce solutions of 1 mM, 100 µM, 10 µM, 1 µM, and 0.1 µM which corresponds to concentrations of 100 µM, 10 µM, 1 µM, 0.1 µM, and 0.01 µM in the final reaction mixture. The test concentrations were stored in the refrigerator until the day of the assay. Trisma HCl buffer (50 mM, adjusted to pH 8 with 2 N NaOH) was prepared as the buffer and used to prepare enzyme stock solution (22 U/ml for Electrophorus electricus AChE and 12 U/ml BuChE from equine serum), 15 mM acetylthiocholine iodide, 15 mM S-butyrylthiocholine iodide and 1.5 mM DTNB (Ellman’s reagent). The enzyme stock solution was stabilised with 1% bovine serum albumin and stored in aliquots at −80 °C. A clear, flat bottom 96 well plate was used to perform the experiments with each concentration performed in triplicate. Prior to the assay the background absorbance for each compound at the different test concentrations was measured and accounted for when reading the final absorbance. […] Following this, 30 µl of the substrate was added to each well simultaneously using a multi pipette. […] A one-sample t-test was performed on the data to test for statistical significance.

[2] = tested on: SH-SY5Y neuroblastoma cells; test: MTT cytotoxicity assay; type: cell-based, human; settings: 48 h
Protocol: The human neuroblastoma SH-SY5Y cells were generously donated by collaborators from the Blackburn Laboratory, University of Cape Town. Cells were cultured in monolayer in Dulbecco’s Modified Eagle Medium (DMEM, Gibco, Life Technologies Corporation UK), supplemented with 10% foetal bovine serum (FBS, Gibco, Life Technologies Corporation, Paisley, UK), 100 U/ml penicillin, and 100 µg/ml streptomycin (Lonza Group Ltd., Verviers Belgium). Cultures were incubated at 37 °C in a humidified atmosphere with 5% CO2. The growth medium was replaced every 3 days and cells were sub-cultured when they attained 70 to 80% confluency using a solution of 0.25% trypsin EDTA (Lonza Group Ltd., Verviers, Belgium).
SH-SY5Y cells were plated in growth medium in the flat bottom 96 well plates at a density of approximately 7500 cells/well. The cells were allowed to adhere to the plate surface for 24 h and following this their media were replenished with fresh media containing the test compounds at 10 µM, 50 µM and 100 µM concentrations dissolved in DMSO. Vehicle control cells were treated with DMSO, at a concentration similar to that of the highest concentration of the test compounds. Following an incubation period of 48 h, 10 µl of MTT solution (5 mg/ml) was added to each well. This was further incubated for 4 h and the formazan formed was solubilised with 100 µl of DMSO. The plates were read using a BMG Labtech Omega® POLARStar plate reader spectrophotometer (Ortenberg, Germany) to determine the absorbance recorded at a wavelength of 570 nm. The percentage cell viability was calculated relative to the vehicle control using the following formula: Cellviability%=(Absorbanceoftreatedwell/Absorbanceofuntreatedwell)×100 [drawing 1]

[3] = target: recombinant human MAO-B (Homo sapiens, UniProt P27338); type: biochemical; settings: preincubation 0-60 min, inhibitor about twofold IC50
Protocol: The concentration of inhibitor in these incubations was approximately twofold the measured IC50 value for the inhibition of the MAO-B enzyme. Potassium phosphate buffer (100 mM, pH 7.4, made isotonic with NaCl) was used as the incubation medium. A final concentration of 30 hx00B5;M kynuramine for MAO-B was then added to the preincubated enzyme preparations and the resulting 250 µl reactions were incubated at 37 °C for 15 min. The reactions were terminated with the addition of 200 µl NaOH (2 N) and a volume of 600 µl distilled water was added to each reaction. The fluorescence of the MAO-B generated 4-hydroxyquinoline in the supernatant fractions were measured using a fluorescent microplate reader at an excitation wavelength of 310 nm and an emission wavelength of 400 nm. Time-dependent graphs were plotted against the relative fluorescent unit readings (RFU).
To determine the binding mode of the studied compounds on MAO-B, the time dependency of enzyme inhibition was measured. If the compounds form a covalent or irreversible adduct with the enzyme, a time-dependent reduction of enzyme activity would be expected. […] For this purpose, the concentrations of the test compounds chosen were approximately twofold the measured IC50 values for the inhibition of the respective enzymes.

[4] = tested on: Aβ 25–35 treated SH-SY5Y cells; test: Amyloid-beta 25–35 induced neurotoxicity (MTT); type: cell-based, human; settings: 10 µM to 100 µM compound, Aβ 25–35 20 µM, 24 h
Protocol: Human neuroblastoma cells (SH-SY5Y) were grown in a culture medium (DMEM/F-12) and supplemented with 10% foetal bovine serum. Prophylactically, 1% v/v of penicillin/streptomycin was added to the medium. Cells were maintained by incubation at 37 °C with 5% carbon dioxide. All experiments were performed by seeding the cells into 24-well plates. Once confluent, the cells were then pre-treated with compounds 6 and 7 (10 µM) for 1 h, followed by Aβ 25–35 addition (20 µM) and incubated for 24 h. The untreated control cells were treated with DMEM which contained DMSO and were incubated in the same manner as the treated cells. […] The level of significance was analysed using One-way ANOVA statistical analysis and expressed using the p-value.
The accumulation of extracellular Aβ plaques has been marked as one of the pathological hallmarks of neurotoxicity associated with AD[59–61] and coumarin moieties have previously shown to inhibit Aβ plaque formation and Aβ induced neurotoxicity[62]^,[63]. To further explore the neuroprotective potential of the propargylamine-containing coumarin derivatives 6 and 7, their ability to curb neurotoxicity induced by the amyloid-β (Aβ) protein was thus assessed according to the method described in the experimental section. […]

[5] = Ellman method, 25 °C, pH 8, read-out: BuChE IC50

T1 sequence (P81908 whole entry): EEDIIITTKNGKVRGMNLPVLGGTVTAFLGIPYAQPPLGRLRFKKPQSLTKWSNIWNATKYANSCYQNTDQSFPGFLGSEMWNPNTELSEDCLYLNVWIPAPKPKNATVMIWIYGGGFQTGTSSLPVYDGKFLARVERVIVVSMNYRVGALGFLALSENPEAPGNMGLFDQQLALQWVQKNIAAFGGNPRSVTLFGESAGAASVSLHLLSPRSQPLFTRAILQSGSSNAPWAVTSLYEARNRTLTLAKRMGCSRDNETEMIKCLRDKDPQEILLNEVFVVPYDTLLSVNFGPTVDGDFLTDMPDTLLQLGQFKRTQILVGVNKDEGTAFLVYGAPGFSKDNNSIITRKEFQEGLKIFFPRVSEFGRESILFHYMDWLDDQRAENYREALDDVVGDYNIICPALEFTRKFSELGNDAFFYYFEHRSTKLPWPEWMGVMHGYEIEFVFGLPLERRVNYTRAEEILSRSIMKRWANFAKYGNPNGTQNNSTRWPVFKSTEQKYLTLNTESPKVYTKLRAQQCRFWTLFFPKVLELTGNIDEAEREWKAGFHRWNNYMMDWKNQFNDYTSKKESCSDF
recombinant human MAO-B, sequence (P27338 whole entry): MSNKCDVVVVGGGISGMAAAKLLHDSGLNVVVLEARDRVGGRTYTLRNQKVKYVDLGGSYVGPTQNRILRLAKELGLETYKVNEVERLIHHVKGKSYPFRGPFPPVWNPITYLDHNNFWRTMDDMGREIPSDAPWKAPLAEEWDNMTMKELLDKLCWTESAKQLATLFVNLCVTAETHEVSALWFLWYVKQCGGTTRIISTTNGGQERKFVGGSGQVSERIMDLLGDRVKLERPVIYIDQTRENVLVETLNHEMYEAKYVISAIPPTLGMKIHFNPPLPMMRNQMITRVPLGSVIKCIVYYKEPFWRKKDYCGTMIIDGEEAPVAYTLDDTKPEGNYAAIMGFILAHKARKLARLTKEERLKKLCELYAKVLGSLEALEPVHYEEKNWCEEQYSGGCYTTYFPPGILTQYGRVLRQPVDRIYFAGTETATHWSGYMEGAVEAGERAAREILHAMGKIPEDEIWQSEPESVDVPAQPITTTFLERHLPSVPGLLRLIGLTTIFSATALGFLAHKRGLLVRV

Structure (SMILES) | IC50 [1, 5] | cell survival (MTT) ([2]; 50 µM) | cell survival (MTT) ([2]; 100 µM) | IC50 [1] | mode of MAO-B inhibition (time dependency) [3] | neuroprotection against Aβ 25–35 cytotoxicity [4]
CCN(CC)C(=O)Oc1ccc2cc(CBr)c(=O)oc2c1 [Compound 5, 3-(bromomethyl)-2-oxo-2H-1-benzopyran-7-yl-diethylcarbamate] | 23.3 µM | 0% | 0% |  |  | 
C#CCNCc1cc2ccc(OC(=O)N(CC)CC)cc2oc1=O [Compound 7, 2-oxo-3-{[(prop-2-yn-1-yl)amino]methyl}-2H-1-benzopyran-7-yl-diethylcarbamate] |  |  |  | > 100 µM | reversible inhibitors of MAO-B | did not show any significant ability to mitigate the cytotoxic effects
O=c1oc2cc(OCCc3ccccc3)ccc2cc1CBr [Compound 4, 3-(bromomethyl)-7-(2-phenylethoxy)-2H-1-benzopyran-2-one] | > 100 µM | 65% | 7% |  |  | 
C#CCNCc1cc2ccc(OCCc3ccccc3)cc2oc1=O [Compound 6, 7-(2-phenylethoxy)-3-{[(prop-2-yn-1-yl)amino]methyl}-2H-1-benzopyran-2-one] | > 100 µM |  |  |  | reversible inhibitors of MAO-B | did not show any significant ability to mitigate the cytotoxic effects
